Test results from article PMC12390684 (Viruses, 2025).

Molecular target: IN-GCN2 interaction (6xHis-IN / GST-GCN2) (UniProt P04585+Q9P2K8)
Experiment: biochemical
Type: binding, HIV-1 IN; human GCN2
Details: screen; for IN-GCN2 interaction (%): single dose 100 µM, single replicate, residual AlphaLISA signal normalized to DMSO control

Sequence of IN-GCN2 interaction (6xHis-IN / GST-GCN2) (Q9P2K8 192-1024, other chains not shown): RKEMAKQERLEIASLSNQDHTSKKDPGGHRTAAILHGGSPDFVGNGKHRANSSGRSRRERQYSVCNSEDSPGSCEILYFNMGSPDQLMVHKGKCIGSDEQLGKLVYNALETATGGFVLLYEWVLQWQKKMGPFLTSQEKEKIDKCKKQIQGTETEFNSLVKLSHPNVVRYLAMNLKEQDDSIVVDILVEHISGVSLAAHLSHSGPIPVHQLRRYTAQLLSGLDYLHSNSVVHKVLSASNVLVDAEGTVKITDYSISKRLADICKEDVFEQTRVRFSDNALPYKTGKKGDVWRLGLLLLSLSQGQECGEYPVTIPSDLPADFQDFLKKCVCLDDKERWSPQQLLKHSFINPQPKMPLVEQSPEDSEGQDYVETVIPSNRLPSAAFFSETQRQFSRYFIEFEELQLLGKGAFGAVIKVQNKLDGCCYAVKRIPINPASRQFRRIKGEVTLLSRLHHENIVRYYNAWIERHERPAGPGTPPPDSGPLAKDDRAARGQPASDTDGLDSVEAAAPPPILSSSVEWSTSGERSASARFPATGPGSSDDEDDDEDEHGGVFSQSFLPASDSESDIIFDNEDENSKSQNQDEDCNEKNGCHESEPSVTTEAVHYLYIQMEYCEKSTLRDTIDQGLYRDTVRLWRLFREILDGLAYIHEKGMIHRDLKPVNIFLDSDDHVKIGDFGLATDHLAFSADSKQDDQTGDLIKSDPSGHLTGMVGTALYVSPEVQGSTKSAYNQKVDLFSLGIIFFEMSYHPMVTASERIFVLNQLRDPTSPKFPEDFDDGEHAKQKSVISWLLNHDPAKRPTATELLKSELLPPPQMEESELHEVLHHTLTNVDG

Structure (SMILES)	IN-GCN2 interaction (%)	also measured
COC(=O)[C@]1(C)CCC[C@]2(C)C3=CC(=O)[C@@]4(C(C)C)O[C@H]4[C@]3(O)CC[C@@H]12 [NSC337783]	100.26%	
CN(C)c1ccc2c(SCC(=O)OCC(=O)[C@@]3(O)CC[C@H]4[C@@H]5CCC6=CC(=O)C=C[C@]6(C)[C@H]5C(=O)C[C@@]43C)c3ccc(N(C)C)cc3nc2c1 [NSC337851]	15.16%	
CCC/C=C/C=C/C(=O)O[C@H]1/C(=C/C(=O)OC)C[C@H]2C[C@H]([C@@H](C)O)OC(=O)C[C@H](O)C[C@@H]3C[C@H](OC(C)=O)C(C)(C)[C@](O)(C[C@@H]4C/C(=C/C(=O)OC)C[C@H](/C=C/C(C)(C)[C@]1(O)O2)O4)O3 [NSC339555]	32.23%	
CO[C@H]1C[C@@H]2\C=C(C)/C=C/C=C\C(=O)N[C@H](c3ccccc3)C/C=C/CC[C@H](O)CC(=O)C2=C1O [NSC343256]	61.66%	
O=C1N[C@@H]2C(=C[C@H](O)[C@@H](O)[C@H]2O)c2cc3c(cc21)OCO3 [NSC349155]	100.93%	
CC(O)CCC(=O)c1ccoc1 (stereo not shown) [NSC349438]	84.65%	
COc1ccc2c(c1)O[C@H]1c3ccc(O)cc3OC[C@@H]21 [NSC350085]	73.66%	
C=Cc1cc(OC)c2c(c1)c(=O)oc1c2cc(OC)c2c(O)ccc(C3OC(C)C(O)C(C)(O)C3O)c21 (stereo not shown) [NSC354844]	85.63%	
CO[C@H]1[C@H](O)[C@@H](O)[C@H](n2c3c(Cl)cccc3c3c4c(c5c6cccc(Cl)c6[nH]c5c32)C(=O)NC4=O)O[C@@H]1CO [NSC359079]	55.24%	
C=C1C(=O)OC2CC(C)C3(O)CCC(=O)C3(C)CC12 (stereo not shown) [NSC361902]	90.19%	
CC(C)=CCCC(C)C1=C(O)C(=O)C(C)=CC1=O (stereo not shown) [NSC365793]	50.48%	
C[C@@H]1CC[C@H]2[C@@H](C)C(=O)O[C@@H]3O[C@@]4(C)CC[C@@H]1[C@]32OO4 [NSC369397]	101.56%	
CC1(C)CCC[C@]2(C)C3=C(CC[C@@H]12)C(=O)OC3 [NSC375294]	100.67%	
CC[C@H](C)[C@@H]([C@@H](CC(=O)N1CCC[C@H]1[C@H](OC)[C@@H](C)C(=O)N[C@@H](Cc1ccccc1)c1nccs1)OC)N(C)C(=O)[C@@H](NC(=O)[C@H](C(C)C)N(C)C)C(C)C [NSC376128]	96.15%	
COc1cc2oc3cc(=O)cc4oc(-c5ccccc5)cc(c2c2c1CCC(c1ccccc1)O2)c43 (stereo not shown) [NSC376248]	71.04%	
CC1(C)C(=O)N2c3ccccc3C3(CC(N4C(=O)c5ccccc5C4=O)C(=O)O3)C2N1C(=O)OCc1ccccc1 (stereo not shown) [NSC382796]	53.34%	
CC1=C2C(=CC(C)(C)[C@@H]2O)C(=O)[C@](C)(O)C12CC2 [NSC400978]	28.97%	
C[C@H]1CO[C@H]2C3=C(C(=O)C=CC3=O)[C@@H]3OC(=O)[C@H]4CC[C@@H]5[C@H]1CC[C@@]52[C@@H]43 [NSC401005]	52.24%	
COc1cc([C@@H]2c3cc4c(cc3C[C@H]3COC(=O)[C@@H]32)OCO4)cc(OC)c1OC [NSC403148]	91.16%	
COc1cc2c(c3c1c(=O)c1ccccc1n3C)C=CC(C)(C)O2 [NSC403169]	89.07%	
O=c1oc2c(O)c(O)cc3c(=O)oc4c(O)c(O)cc1c4c23 [NSC407286]	49.11%	
COC(=O)[C@H]1[C@H]2C[C@H]3c4[nH]c5ccccc5c4CCN3C[C@@H]2CC[C@@H]1O [NSC407306]	114.25%	

Structure (SMILES)	IN-GCN2 interaction (%)	also measured
COc1cc(O[C@@H]2O[C@H](CO)[C@@H](O)[C@H](O)[C@H]2O)c2c(c1)O[C@H](c1ccc(O)cc1)CC2=O [NSC407308]	92.73%	
C[C@]12CC[C@H](O)C[C@H]1CC[C@@H]1[C@@H]2CC[C@]2(C)[C@@H](C3=CC(=O)OC3)CC[C@]12O [NSC407806]	101.32%	
CSC1SC[C@H]2C(=O)N(C)[C@@H](C(C)C)C(=O)OC[C@@H](NC(=O)c3cnc4ccccc4n3)C(=O)N[C@@H](C)C(=O)N(C)[C@@H]1C(=O)N(C)[C@@H](C(C)C)C(=O)OC[C@@H](NC(=O)c1cnc3ccccc3n1)C(=O)N[C@@H](C)C(=O)N2C (stereo partly shown) [NSC526417]	53.14%	
COc1cccc2c1C1COC3C4CC(C(=O)O)C(C(C2)N13)N4C.O=C(O)CC(O)(CC(=O)O)C(=O)O (stereo not shown) [NSC601422]	152.09%	
COc1cccc2c1[C@H](CO)N1[C@H](C#N)[C@@H]3C[C@H](C(=O)O)[C@@H]([C@@H]1C2)N3C [NSC607097]	110.01%	
O[C@@H]1[C@@H](O)[C@@H](O)CN2CC[C@H](O)[C@@H]12 [NSC614552]	134.45%	
CCc1c2c(nc3ccc(OC(=O)N4CCC(N5CCCCC5)CC4)cc13)-c1cc3c(c(=O)n1C2)COC(=O)[C@]3(O)CC [NSC616348]	97.94%	
CC(=O)CCCCn1c(=O)c2c(ncn2C)n(C)c1=O [NSC637086]	87.24%	
C=C1C(=O)C23C(O)C1CCC2C12CCCC(C)(COC(C)=O)C1C(O)C3(O)OC2 (stereo not shown) [NSC642099]	95.31%	
COc1ccc2c3c([nH]c2c1)[C@H](C=C(C)C)N1C(=O)[C@@H]2CCCN2C(=O)[C@@H]1C3 [NSC719655]	66.56%	
COc1c(OC)c2c3c(nccc3c1OC)C(=O)c1cc(O)ccc1-2 [NSC785143]	30.28%	
COc1c(OC)c2c3c(nccc3c1OC)-c1cc(=O)c(OC)ccc1-2 [NSC785144]	14.73%	
COc1cc2c3c(c1OC)-c1ccccc1C[C@H]3N(C)CC2 [NSC785145]	66.76%	
COc1ccc2c(c1OC)-c1c(OC)c(OC)cc3c1[C@H](C2)N(C)CC3 [NSC785146]	58.90%	
COc1c(O)ccc2c1-c1c3c(cc4c1[C@H](C2)N(C)CC4)OCO3 [NSC785147]		IN-GCN2 interaction (%) (listed as 785147): 67.05%
COc1c(O)ccc2c1-c1c3c(cc4c1[C@H](C2)NCC4)OCO3 [NSC785148]	69.85%	
COc1c(OC)c2c3c(nccc3c1OC)C(=O)c1ccccc1-2 [NSC785149]	57.46%	
COc1c(OC)c2c3c(ncc(OC)c3c1OC)C(=O)c1ccccc1-2 [NSC785150]	58.33%	
COc1c(OC)c(OC)c2c3c(cc4ccccc42)NC(=O)C(=O)c13 [NSC785151]	48.18%	
COc1ccc2c(c1O)-c1cccc3c1[C@@H](C2)N(C)CC3 [NSC785152]	66.28%	
COc1ccc2c(c1OC)-c1cccc3c1[C@@H](C2)N(C)CC3 [NSC785153]	61.13%	
c1ccc2c(c1)cc1c3c(cc4c(c32)OCO4)CCN1 [NSC785156]	39.07%	

Structure (SMILES)	IN-GCN2 interaction (%)	also measured
c1cc2c(c3c1C[C@@H]1NCCc4cc5c(c-3c41)OCO5)OCO2 [NSC785157]	72.19%	
COc1cc2c3c(c1O)-c1ccccc1C[C@@H]3N(C)CC2 [NSC785159]		effect on IN-GCN2 interaction in the screen, in words (100 µM, inactive = within 10% of the DMSO control): inactive; IN-GCN2 interaction (%) (listed as 785159): 94.21%
COc1cc2c3c(c1OC)-c1cc4c(cc1C[C@@H]3N(C)CC2)OCO4 [NSC785161]	55.76%	
COc1ccc2c(c1OC)-c1c3c(cc4c1[C@H](C2)N(C)CC4)OCO3 [NSC785162]	46.45%	
COc1cc2c(c(O)c1OC)C[C@H]1c3c(c(OC)c4c(c3-2)OCO4)CCN1C [NSC785163]	34.56%	
CN1CCc2cc3c(c4c2[C@H]1Cc1ccccc1-4)OCO3 [NSC785164]	64.36%	
COc1cc2c3c(c1O)C1(C=CC(=O)C=C1)C[C@@H]3N(C)CC2 [NSC785166]	94.62%	
COc1cc2c3c(c1O)-c1cc(O)ccc1C[C@H]3N(C)CC2 [NSC785167]	75.29%	
CCOc1ccc2c(c1)-c1c(O)c(OC)cc3c1[C@H](C2)N(C)CC3 [NSC785169]	40.02%	
COc1cc2c3c(c1O)-c1ccccc1C[C@@H]3N(C)CC2 [NSC785170]		IN-GCN2 interaction (%) (listed as 785170): 99.49%
COc1cc2c(cc1OC)[C@@H](Cc1ccc(O)cc1)N(C)CC2 [NSC785172]	91.61%	
COc1cc2c3c(c1O)Oc1ccc(cc1)C[C@@H]1c4c(cc(OC)c(OC)c4Oc4ccc(cc4)C[C@@H]3N(C)CC2)CCN1C [NSC785173]	45.72%	
COc1cc2c3c(c1OC)Oc1ccc(cc1)C[C@H]1c4c(cc(OC)c(OC)c4Oc4ccc(cc4)C[C@H]3N(C)CC2)CCN1C [NSC785174]	57.96%	
COC1=C[C@@H]2[C@@H]3Cc4ccc(OC)c(O)c4[C@]2(CCN3C)CC1=O [NSC785175]	87.66%	
COc1cc2c3c(c1O)-c1ccccc1CC3N(C)CC2 (stereo not shown) [NSC785177]	73.43%	
COc1cc2c(cc1O)C[C@H]1c3c(c(OC)c4c(c3-2)OCO4)CCN1C [NSC785179]	39.12%	
CC[C@]12CCCN3CC[C@]4(C(=C(C(=O)OC)C1)Nc1ccccc14)[C@@H]32 [NSC785180]	67.39%	
COc1c(O)ccc2c1-c1c3c(cc4c1[C@H](C2)N(C)CC4)OCO3 [NSC785181]		IN-GCN2 interaction (%) (listed as 785181): 54.07%
COc1c(O)ccc2c1-c1c3c(cc4c1[C@H](C2)N(C)CC4)OCO3 [NSC785182]		IN-GCN2 interaction (%) (listed as 785182): 74.81%
COc1cc2c(cc1O)[C@@H](Cc1ccc(Oc3cc(C[C@H]4c5cc(O)c(OC)cc5CCN4C)ccc3OC)cc1)N(C)CC2 [NSC785183]	47.22%	
COc1cc2c(cc1O)[C@@H](Cc1ccc(Oc3cc(C[C@H]4c5cc(O)c(OC)cc5CCN4C)ccc3O)cc1)N(C)CC2 [NSC785184]	46.86%	
CCOc1cc2c(cc1OC)CCN[C@H]2Cc1ccc(O)cc1 [NSC785185]	75.32%	
